System: CHIKV 181/clone25
Test: CHIKV cytopathic effect (CPE) protection assay in Vero cells
Format: cell-based
Conditions: Chikungunya virus; CHIKV 181/clone25, Vero cells, MOI=0.01, 48 hrs, protection from CPE (crystal violet, absorbance 595nm)

Structure (SMILES): O=C(CC1Sc2ncccc2NC1=O)NCc1ccc(F)c(F)c1 (stereo not shown) [Example 50, N-(3,4-difluorobenzyl)-2-(2-oxo-2,3-dihydro-1H-pyrido[2,3-b][1,4]thiazin-3-yl)acetamide]
- EC50: 10 to 49.9 µM

Structure (SMILES): CN1C(=O)C(CC(=O)NC2CCCCC2)Sc2ncccc21 (stereo not shown) [Example 19, N-cyclohexyl-2-(1-methyl-2-oxo-2,3-dihydro-1H-pyrido[2,3-b][1,4]thiazin-3-yl)acetamide]
- EC50: > 100 µM

Structure (SMILES): COC1(CNC(=O)CC2Sc3ncccc3NC2=O)CCCCC1 (stereo not shown) [Example 79, N-((1-methoxycyclohexyl)methyl)-2-(2-oxo-2,3-dihydro-1H-pyrido[2,3-b][1,4]thiazin-3-yl)acetamide]
- EC50: < 10 µM

Structure (SMILES): CC1CCCCN1CCNC(=O)CC1Sc2ncccc2N(C)C1=O (stereo not shown) [Example 40, 2-(1-methyl-2-oxo-2,3-dihydro-1H-pyrido[2,3-b][1,4]thiazin-3-yl)-N-(2-(2-methylpiperidin-1-yl)ethyl)acetamide]
- EC50: > 100 µM

Structure (SMILES): CCC1(CNC(=O)CC2Sc3ncccc3NC2=O)CCCCC1 (stereo not shown) [Example 76, N-((1-ethylcyclohexyl)methyl)-2-(2-oxo-2,3-dihydro-1H-pyrido[2,3-b][1,4]thiazin-3-yl)acetamide]
- EC50: < 10 µM

Structure (SMILES): COCC1(CNC(=O)CC2Sc3ncccc3NC2=O)CCCCC1 (stereo not shown) [Example 82, N-((1-(methoxymethyl)cyclohexyl)meth-yl)-2-(2-oxo-2,3-dihydro-1H-pyrido[2,3-b][1,4]thiazin-3-yl)acetamide]
- EC50: 50 to 99.9 µM

Structure (SMILES): CN1C(=O)C(CC(=O)N2CCCCC2)Sc2ncccc21 (stereo not shown) [Example 38, 1-methyl-3-(2-oxo-2-(piperidin-1-yl)ethyl)-1H-pyrido[2,3-b][1,4]thiazin-2(3H)-one]
- EC50: > 100 µM

Structure (SMILES): CN(Cc1ccccc1)C(=O)CC1Sc2ncccc2N(C)C1=O (stereo not shown) [Example 27, N-benzyl-N-methyl-2-(1-methyl-2-oxo-2,3-dihydro-1H-pyrido[2,3-b][1,4]thiazin-3-yl)acetamide]
- EC50: > 100 µM

Structure (SMILES): Cc1ccc(CNC(=O)CC2Sc3ncccc3N(C)C2=O)o1 (stereo not shown) [Example 33, 2-(1-methyl-2-oxo-2,3-dihydro-1H-pyrido[2,3-b][1,4]thiazin-3-yl)-N-((5-methylfuran-2-yl)methyl)acetamide]
- EC50: > 100 µM

Structure (SMILES): COCCNC(=O)CC1Sc2ncccc2N(C)C1=O (stereo not shown) [Example 18, N-(2-methoxyethyl)-2-(1-methyl-2-oxo-2,3-dihydro-1H-pyrido[2,3-b][1,4]thiazin-3-yl)acetamide]
- EC50: > 100 µM

Structure (SMILES): NC1(CNC(=O)CC2Sc3ncccc3NC2=O)CCCCC1 (stereo not shown) [Example 80, N-((1-aminocyclohexyl)methyl)-2-(2-oxo-2,3-dihydro-1H-pyrido[2,3-b][1,4]thiazin-3-yl)acetamide]
- EC50: > 100 µM

Structure (SMILES): CN1C(=O)[C@@H](CC(=O)NCC2CCCCC2)Sc2ncccc21 [Example 6, (R)-N-(cyclohexylmethyl)-2-(1-methyl-2-oxo-2,3-dihydro-1H-pyrido[2,3-b][1,4]thiazin-3-yl)acetamide]
- EC50: < 10 µM

Structure (SMILES): O=C(CC1CCCCC1)NCC1Sc2ncccc2NC1=O (stereo not shown) [Example 73, 2-cyclohexyl-N-((2-oxo-2,3-dihydro-1H-pyrido[2,3-b][1,4]thiazin-3-yl)methyl)acetamide]
- EC50: 10 to 49.9 µM

Structure (SMILES): CC(C)N1CCN(C(=O)CC2Sc3ncccc3N(C)C2=O)CC1 (stereo not shown) [Example 32, 3-(2-(4-isopropylpiperazin-1-yl)-2-oxoethyl)-1-methyl-1H-pyrido[2,3-b][1,4]thiazin-2(3H)-one]
- EC50: > 100 µM

Structure (SMILES): O=C(CC1Sc2ncccc2NC1=O)NCC1CCSCC1 (stereo not shown) [Example 47, 2-(2-oxo-2,3-dihydro-1H-pyrido[2,3-b][1,4]thiazin-3-yl)-N-((tetrahydro-2H-thiopyran-4-yl)methyl)acetamide]
- EC50: 10 to 49.9 µM

Structure (SMILES): O=C(CC1Sc2ncccc2NC1=O)NCCCC(F)(F)F (stereo not shown) [Example 72, 2-(2-oxo-2,3-dihydro-1H-pyrido[2,3-b][1,4]thiazin-3-yl)-N-(4,4,4-trifluorobutyl)acetamide]
- EC50: > 100 µM

Structure (SMILES): O=C(CC1Cc2ncccc2NC1=O)NCc1ccc(F)cc1 (stereo not shown) [Example 90, N-(4-fluorobenzyl)-2-(2-oxo-1,2,3,4-tetrahydro-1,5-naphthyridin-3-yl)acetamide]
- EC50: 10 to 49.9 µM

Structure (SMILES): CCC(C)NC(=O)CC1Sc2ncccc2N(C)C1=O (stereo not shown) [Example 16, N-(sec-butyl)-2-(1-methyl-2-oxo-2,3-dihydro-1H-pyrido[2,3-b][1,4]thiazin-3-y)acetamide]
- EC50: > 100 µM

Structure (SMILES): CN1CCN(C(=O)CC2Sc3ncccc3N(C)C2=O)CC1 (stereo not shown) [Example 8, 1-methyl-3-(2-(4-methylpiperazin-1-yl)-2-oxoethyl)-1H-pyrido[2,3-b][1,4]thiazin-2(3H)-one]
- EC50: > 100 µM

Structure (SMILES): O=C(CC1Sc2ncccc2NC1=O)NCc1ccc(F)cc1 (stereo not shown) [Example 56, N-(4-fluorobenzyl)-2-(2-oxo-2,3-dihydro-1H-pyrido[2,3-b][1,4]thiazin-3-yl)acetamide]
- EC50: < 10 µM

Structure (SMILES): O=C(CC1Sc2ncccc2NC1=O)NCc1cccc(F)c1 (stereo not shown) [Example 55, N-(3-fluorobenzyl)-2-(2-oxo-2,3-dihydro-1H-pyrido[2,3-b][1,4]thiazin-3-yl)acetamide]
- EC50: > 100 µM

Structure (SMILES): O=C(CC1Sc2ncccc2NC1=O)NCC1CCCC1 (stereo not shown) [Example 63, N-(cyclopentylmethyl)-2-(2-oxo-2,3-dihydro-1H-pyrido[2,3-b][1,4]thiazin-3-yl)acetamide]
- EC50: < 10 µM

Structure (SMILES): CN1C(=O)C(CC(=O)N2CCCCCC2)Sc2ncccc21 (stereo not shown) [Example 31, 3-(2-(azepan-1-yl)-2-oxoethyl)-1-methyl-1H-pyrido[2,3-b][1,4]thiazin-2(3H)-one]
- EC50: > 100 µM

Structure (SMILES): CC1CCN(C(=O)CC2Sc3ncccc3N(C)C2=O)CC1 (stereo not shown) [Example 36, 1-methyl-3-(2-(4-methylpiperidin-1-yl)-2-oxoethyl)-1H-pyrido[2,3-b][1,4]thiazin-2(3H)-one]
- EC50: > 100 µM

Structure (SMILES): O=C(CC1Sc2ncccc2NC1=O)NCc1ccc(Cl)cc1 (stereo not shown) [Example 53, N-(4-chlorobenzyl)-2-(2-oxo-2,3-dihydro-1H-pyrido[2,3-b][1,4]thiazin-3-yl)acetamide]
- EC50: 10 to 49.9 µM

Structure (SMILES): O=C(CC1Cc2ncccc2NC1=O)NCC1CCCCC1 (stereo not shown) [Example 88, N-(cyclohexylmethyl)-2-(2-oxo-1,2,3,4-tetrahydro-1,5-naphthyridin-3-yl)acetamide]
- EC50: 10 to 49.9 µM

Structure (SMILES): CN1C(=O)C(CC(=O)NCc2cccnc2)Sc2ncccc21 (stereo not shown) [Example 13, 2-(1-methyl-2-oxo-2,3-dihydro-1H-pyrido[2,3-b][1,4]thiazin-3-yl)-N-(pyridin-3-ylmethyl)acetamide]
- EC50: > 100 µM

Structure (SMILES): CN1C(=O)C(CC(=O)NCc2ccccc2C(F)(F)F)Sc2ncccc21 (stereo not shown) [Example 25, 2-(1-methyl-2-oxo-2,3-dihydro-1H-pyrido[2,3-b][1,4]thiazin-3-yl)-N-(2-(trifluoromethyl)benzyl)aceta-mide]
- EC50: > 100 µM

Structure (SMILES): O=C(CC1Sc2ncccc2NC1=O)NCc1ccc(Cl)c(Cl)c1 (stereo not shown) [Example 49, N-(3,4-dichlorobenzyl)-2-(2-oxo-2,3-dihydro-1H-pyrido[2,3-b][1,4]thiazin-3-yl)acetamide]
- EC50: > 100 µM

Structure (SMILES): CN(C)CCCNC(=O)CC1Sc2ncccc2N(C)C1=O (stereo not shown) [Example 28, N-(3-(dimethylamino)propyl)-2-(1-methyl-2-oxo-2,3-dihydro-1H-pyrido[2,3-b][1,4]thiazin-3-yl)acetamide]
- EC50: > 100 µM

Structure (SMILES): O=C(CC1Sc2ncccc2NC1=O)NCc1cccc(Cl)c1 (stereo not shown) [Example 54, N-(3-chlorobenzyl)-2-(2-oxo-2,3-dihydro-1H-pyrido[2,3-b][1,4]thiazin-3-yl)acetamide]
- EC50: > 100 µM

Reference: patent publication US20220233549A1, “METHOD FOR ALPHAVIRUS INHIBITION” (priority 2019, published 2022)
